Measured values as given in patent publication US11160816B2, “Composition for treatment of Alzheimer's disease” (GLOVIA COMPANY LIMITED, priority 2017, dated 2021).

Columns and labels:
[1] = tested on: oligodendrocyte precursor cells (OPCs); assay: O1 antibody immunostaining of cultivated OPCs, ratio of O1 positive oligodendrocytes (FIG. 3); assay type: cell-based, mice; settings: final concentration of each 0.1 mM, 48 hours, compared with control
[2] = tested on: stroke patients; settings: cited from earlier work
[3] = tested on: mild to moderate Alzheimer patients; settings: 400 mg capsule 3 times per day for 180 days; cited from earlier work
[4] = tested on: oligodendrocyte precursor cells (OPCs); assay: Cultivation of oligodendrocyte precursor cells, phase-contrast observation of proliferation and differentiation (FIG. 2); assay type: cell-based, mice; settings: final concentration of each 10 μM, cultivated for 48 hours, compared with control (PBS alone)
[5] = tested on: oligodendrocyte progenitor cell; settings: cultivation in the presence of the substance; cited from earlier work
[6] = stroke patients, nonpatent document 6

| Structure (SMILES) | ratio of O1 positive oligodendrocytes against the number of total cells [1] | cognitive abilities ([2]; 1000 mg per day for 28 days, then oral 400 mg per day for 5 months, 2,044 stroke patients) | harmful adverse drug reactions, share of patients [2, 6] | headache, share of patients [2, 6] | heartburn, share of patients [2, 6] | insomnia/agitation, share of patients [2, 6] | patients who hoped for stop of treatment [2, 6] | vomiturition/emesis, share of patients [2, 6] | cognitive function [3] | proliferation and differentiation of OPCs (phase-contrast photos) [4] | generation of p-21.5kDaMBP, proliferation and differentiation of oligodendrocyte progenitor cell [5] |
| --- | --- | --- | --- | --- | --- | --- | --- | --- | --- | --- | --- |
| C[N+](C)(C)CCOP(=O)([O-])OC[C@H](O)CO [α-GPC, L-α-glycerylphosphorylcholine] | hardly increases compared with the control | recovery of the patients' cognitive abilities | 2.14% | 0.2% | 0.7% | 0.4% | 0.7% | 0.5% | improving effect on cognitive function | proliferation and differentiation of OPCs proceeds | – |
| C[C@@H]1O[C@@H](OC[C@H]2O[C@@H](Oc3cc(O)c4c(c3)O[C@H](c3ccc(O)cc3)CC4=O)[C@H](O)[C@@H](O)[C@@H]2O)[C@H](O)[C@H](O)[C@H]1O [narirutin] | – | – | – | – | – | – | – | – | – | proliferation and differentiation of OPCs proceeds | promoted the generation of p-21.5kDaMBP |
| COc1ccc([C@@H]2CC(=O)c3c(O)cc(O[C@@H]4O[C@H](CO[C@@H]5O[C@@H](C)[C@H](O)[C@@H](O)[C@H]5O)[C@@H](O)[C@H](O)[C@H]4O)cc3O2)cc1O [hesperidin] | – | – | – | – | – | – | – | – | – | proliferation and differentiation of OPCs proceeds | promoted the generation of p-21.5kDaMBP |
